Test results taken from paper PMC4225009, “Structure-activity-relationship study of N-acyl-N-phenylpiperazines as potential inhibitors of the Excitatory Amino Acid Transporters (EAATs): improving the potency of a micromolar screening Hit is not truism” (SpringerPlus, 2013).
pIC50: −log10 of the molar value. Read-outs that look alike come from different tables or passages of the source.

Columns and labels:
[1] = target: T1, human EAAT2 (Homo sapiens, UniProt P43004); experiment: [3H]-D-aspartate uptake assay at HEK293 cells stably expressing human EAAT2; type: cell-based
T1 construct: expressed in transfected cells
Excerpt: (§1) In total, […] piperazine analogs 2.1-2.40 and 3.1-3.12 were characterized pharmacologically at stable HEK293 cells expressing human EAAT1-3 in a [^3H]-D-aspartate uptake assay, (Jensen & Bräuner-Osborne [2004]) and the results are summarized in Table 1 and Table 2. […] Usually, such findings would lead to the conclusion that the bicyclo-[2.2.1]-heptanyl group occupies a promiscuous hydrophobic pocket, which could be optimized for increased potency. However, upon increasing or decreasing the hydrophobic bulk and/or flexibility, a clear drop in potency was observed (analogs 2.1-2.17, Table 1). […] These findings could open up for the hypothesis that the pocket is indeed not hydrophobic but instead hydrophilic in nature. Upon binding of the hydrophobic alkane group, water molecules are forced out and ligand binding is entropically driven rather than enthalpically. Thus analogs 2.18-2.31, which comprise a hydrophobic group, could be potential inhibitors.
(§2) Analogs 2.22-2.31, 2.36-2.40, 3.3, 3.4, 3.6 and 3.12 were obtained as 5 mg portions pre-dissolved in DMSO from ChemBridge corporation and used directly in the [3H]-Asp-uptake assay.

[2] = target: T2, human EAAT3 (Homo sapiens, UniProt P43005); experiment: [3H]-D-aspartate uptake assay at HEK293 cells stably expressing human EAAT3; type: cell-based
T2 construct: expressed in transfected cells
T2 sequence (P43005 1-524): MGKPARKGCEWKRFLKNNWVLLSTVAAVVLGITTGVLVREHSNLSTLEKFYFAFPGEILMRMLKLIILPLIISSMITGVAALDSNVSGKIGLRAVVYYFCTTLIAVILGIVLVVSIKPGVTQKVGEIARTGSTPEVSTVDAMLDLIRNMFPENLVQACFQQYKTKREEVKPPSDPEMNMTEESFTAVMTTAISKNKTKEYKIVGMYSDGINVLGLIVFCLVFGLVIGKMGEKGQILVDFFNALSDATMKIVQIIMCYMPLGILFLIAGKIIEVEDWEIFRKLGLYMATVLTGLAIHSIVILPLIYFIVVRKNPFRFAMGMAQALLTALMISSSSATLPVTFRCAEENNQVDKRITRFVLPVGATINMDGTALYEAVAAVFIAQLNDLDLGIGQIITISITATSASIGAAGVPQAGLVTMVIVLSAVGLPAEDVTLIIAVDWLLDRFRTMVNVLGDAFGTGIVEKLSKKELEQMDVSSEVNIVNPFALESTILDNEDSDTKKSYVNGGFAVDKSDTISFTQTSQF
Excerpt: as §1, §2

[3] = tested on: human EAAT1-3; experiment: [3H]-D-aspartate uptake assay, statements made for EAAT1-3 together; type: cell-based; conditions: for inhibitory activity at EAAT1-3 (in words): HEK293 cells expressing human EAAT1-3, [3H]-D-aspartate uptake; for drop in inhibitory potency across the subtypes: relative to the lead, EAAT1-3
Excerpt: as §1, §2

[4] = target: T3, human EAAT1 (Homo sapiens, UniProt P43003); experiment: [3H]-D-aspartate uptake assay at HEK293 cells stably expressing human EAAT1; type: cell-based
T3 construct: expressed in transfected cells
Excerpt: as §1, §2

[5] = D-aspartate uptake, HEK293 cells stably expressing human EAAT2, analogs 3.1-3.12 (Table 2), read-out: EAAT2 IC50
[6] = D-aspartate uptake, HEK293 cells stably expressing human EAAT3, analogs 3.1-3.12 (Table 2), read-out: EAAT3 IC50
[7] = D-aspartate uptake, HEK293 cells stably expressing human EAAT1, analogs 3.1-3.12 (Table 2), read-out: EAAT1 IC50
[8] = [3H]-D-aspartate uptake, HEK293 cells stably expressing human EAAT2, analogs 1 and 2.1-2.40 (Table 1), read-out: EAAT2 IC50
[9] = [3H]-D-aspartate uptake, HEK293 cells stably expressing human EAAT3, analogs 1 and 2.1-2.40 (Table 1), read-out: EAAT3 IC50
[10] = [3H]-D-aspartate uptake, HEK293 cells stably expressing human EAAT1, analogs 1 and 2.1-2.40 (Table 1), read-out: EAAT1 IC50

T3 sequence (P43003 whole entry): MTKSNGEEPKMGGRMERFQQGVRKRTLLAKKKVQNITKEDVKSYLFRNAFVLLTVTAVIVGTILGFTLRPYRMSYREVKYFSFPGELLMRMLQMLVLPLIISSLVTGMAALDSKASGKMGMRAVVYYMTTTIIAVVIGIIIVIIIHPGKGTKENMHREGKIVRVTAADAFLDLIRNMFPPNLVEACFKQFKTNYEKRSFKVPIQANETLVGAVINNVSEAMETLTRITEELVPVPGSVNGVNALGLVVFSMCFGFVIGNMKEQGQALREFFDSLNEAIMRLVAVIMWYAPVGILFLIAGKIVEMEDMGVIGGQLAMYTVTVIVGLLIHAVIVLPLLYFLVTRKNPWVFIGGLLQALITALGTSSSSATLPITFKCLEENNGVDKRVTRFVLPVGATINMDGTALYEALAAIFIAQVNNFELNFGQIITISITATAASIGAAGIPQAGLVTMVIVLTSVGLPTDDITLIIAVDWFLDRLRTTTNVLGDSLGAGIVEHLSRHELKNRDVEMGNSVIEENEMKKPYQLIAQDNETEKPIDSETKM
T1 sequence (P43004 whole entry): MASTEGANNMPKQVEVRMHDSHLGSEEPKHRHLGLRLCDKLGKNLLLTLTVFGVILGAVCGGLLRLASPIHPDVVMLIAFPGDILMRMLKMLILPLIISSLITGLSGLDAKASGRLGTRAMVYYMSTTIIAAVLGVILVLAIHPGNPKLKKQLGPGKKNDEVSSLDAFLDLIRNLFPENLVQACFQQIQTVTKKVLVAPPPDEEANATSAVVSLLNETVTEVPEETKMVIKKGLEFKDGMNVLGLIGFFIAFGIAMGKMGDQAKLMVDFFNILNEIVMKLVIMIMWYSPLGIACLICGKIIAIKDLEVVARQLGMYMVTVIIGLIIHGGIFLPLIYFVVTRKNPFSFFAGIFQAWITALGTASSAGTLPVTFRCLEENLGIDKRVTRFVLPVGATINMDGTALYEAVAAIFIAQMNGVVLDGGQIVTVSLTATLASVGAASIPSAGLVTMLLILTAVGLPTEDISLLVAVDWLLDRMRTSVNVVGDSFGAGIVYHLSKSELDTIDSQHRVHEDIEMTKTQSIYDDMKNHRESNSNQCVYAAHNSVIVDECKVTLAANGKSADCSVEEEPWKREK

Structure (SMILES) | melting point | pIC50 [1, 5] | pIC50 [2, 6] | inhibitory activity at EAAT1-3 (in words) [3] | pIC50 [4, 7] | pIC50 [1, 8] | pIC50 [2, 9] | drop in inhibitory potency across the subtypes [3] | pIC50 [4, 10] | pIC50 [1] | pIC50 [2] | pIC50 [4]
O=C(C1CC2CCC1C2)N1CCN(c2ccc(C(F)(F)F)cc2)CC1 (racemic) [(±)-endo-exo-3.2, (±)-endo-exo-Bicyclo[2.2.1]heptan-2-yl(4-(4-(trifluoromethyl)phenyl)piperazin-1-yl)methanone] | 126 to 127 °C (dec.) | < 3.52 | < 3.52 | loss of inhibitory activity | < 3.52 |  |  |  |  |  |  | 
O=C(C1CC2CCC1C2)N1CCN(c2cccc(O)c2)CC1 (racemic) [(±)-endo-exo-3.8, (±)-endo-exo-Bicyclo[2.2.1]heptan-2-yl(4-(3-hydroxyphenyl)piperazin-1-yl)methanone] | 187 to 189 °C (dec.) | < 3.52 | < 3.52 |  | < 3.52 |  |  |  |  |  |  | 
O=C(C1CCCCC1)N1CCN(c2cccc(C(F)(F)F)c2)CC1 [2.3, Cyclohexyl(4-(3-(trifluoromethyl)phenyl)piperazin-1-yl)methanone] |  |  |  |  |  | ~4.00 | ~4.00 | 5-15 fold | ~4.00 |  |  | 
O=C(c1ccccc1)N1CCN(c2cccc(C(F)(F)F)c2)CC1 [2.11, Phenyl(4-(3-(trifluoromethyl)phenyl)piperazin-1-yl)methanone] |  |  |  |  |  | < 4.00 | < 4.00 | 5-15 fold | ~3.82 |  |  | 
O=C(c1ccc2c(c1)OCO2)N1CCN(c2cccc(C(F)(F)F)c2)CC1 [2.12, Benzo[d][1,3]dioxol-5-yl(4-(3-(trifluoromethyl)phenyl)piperazin-1-yl)methanone] | 87 to 89 °C |  |  |  |  | < 4.00 | < 4.00 |  | < 4.00 |  |  | 
O=C(N1CCN(c2cccc(C(F)(F)F)c2)CC1)C1(c2ccccc2)CCCC1 [2.14, 1-Phenylcyclopentyl-(4-(3-(trifluoromethyl)phenyl)piperazin-1-yl)methanone] | 77 to 79 °C |  |  |  |  |  |  |  |  | < 3.52 | < 3.52 | < 3.52
O=C(OCc1ccccc1)N1CCN(c2cccc(C(F)(F)F)c2)CC1 [2.32, Benzyl 4-(3-(trifluoromethyl)phenyl)piperazine-1-carboxylate] |  |  |  | neither the carbamate 2.32 nor the sulfonamide 2.33 analog displayed inhibitory activity |  | < 3.52 | < 3.52 |  | < 3.00 |  |  | 
O=S(=O)(c1ccccc1)N1CCN(c2cccc(C(F)(F)F)c2)CC1 [2.33, 1-(Phenylsulfonyl)-4-(3-(trifluoromethyl)phenyl)piperazine] | 109 to 111 °C (dec.) |  |  | neither the carbamate 2.32 nor the sulfonamide 2.33 analog displayed inhibitory activity |  | < 3.52 | < 3.00 |  | < 3.00 |  |  | 
